Experimental data published in ChEMBL document CHEMBL4665541, “Search for new therapeutic options for the uncommon pathogen Mycobacterium chimaera: an open drug discovery approach” (Lancet Microbe, 2021).

Assays:
Assay type in all cases: functional, organism-based
Design in all cases: conc 20 uM
[1] = system: Mycobacterium intracellulare subsp. chimaera; assay: (§1) Inhibition of mycobacterial growth using the resazurin microtitre cell viability assay (REMA), compounds at final concentration of 20 µM (2% v/v DMSO). Hits were classed as compounds that inhibited bacterial growth by 70% or more compared to drug-free controls.; details: NCTC13781
[2] = system: Mycobacterium tuberculosis; assay: as §1; details: H37Rv
[3] = system: Mycobacteroides abscessus; assay: as §1; details: ATCC19977

Row | Substance | Survival [1] [%] | Survival [2] [%] | Survival [3] [%]
1 | MMV000011 | 10.1 | 22.4 | 118
2 | MMV000016 | 110 | 127 | 99.9
3 | MMV000023 | 92.8 | 84.7 | 109
4 | MMV000062 | 85.2 | 18.8 | 109
5 | MMV000063 | 99.8 | 90.6 | 120
6 | MMV000858 | 118 | 105 | 113
7 | MMV000907 | 98.3 | 97.1 | 111
8 | MMV001059 | 106 | 89.4 | 105
9 | MMV001493 | 106 | 93.6 | 128
10 | MMV001499 | 101 | 93.2 | 125
11 | MMV001561 | 103 | 91.3 | 103
12 | MMV001625 | 101 | 90.5 | 121
13 | MMV002529 | 99.8 | 92 | 120
14 | MMV002816 | 102 | 86.4 | 112
15 | MMV002817 | 100 | 90.6 | 118
16 | MMV003152 | 96.7 | 92.7 | 111
17 | MMV004168 | 99.7 | 90.2 | 114
18 | MMV006239 | 94.8 | 86.9 | 112
19 | MMV006372 | 98.4 | 101 | 111
20 | MMV006741 | 96.4 | 85.7 | 111
21 | MMV006833 | 115 | 93.7 | 126
22 | MMV006901 | 120 | 86.8 | 102

Row | Substance | Survival [1] [%] | Survival [2] [%] | Survival [3] [%]
23 | MMV007133 | 95.2 | 98.7 | 95
24 | MMV007471 | 101 | 89.1 | 119
25 | MMV007625 | 104 | 90.4 | 123
26 | MMV007638 | 113 | 100 | 123
27 | MMV007803 | 105 | 97.5 | 101
28 | MMV007920 | 99.7 | 98 | 102
29 | MMV008439 | 99.8 | 106 | 112
30 | MMV009054 | 100 | 98.7 | 105
31 | MMV009135 | 104 | 93.6 | 101
32 | MMV010545 | 86.4 | 91.4 | 111
33 | MMV010576 | 99 | 106 | 112
34 | MMV010764 | 94.1 | 88.8 | 101
35 | MMV011229 | 94 | 92.6 | 97.3
36 | MMV011511 | 104 | 88 | 112
37 | MMV011691 | 103 | 86.2 | 104
38 | MMV011765 | 70.9 | 89.2 | 108
39 | MMV011903 | 108 | 108 | 114
40 | MMV012074 | 88.4 | 53.4 | 110
41 | MMV016136 | 108 | 107 | 118
42 | MMV016838 | 91.7 | 78.9 | 109
43 | MMV019087 | 92.7 | 74.9 | 111
44 | MMV019189 | 97.4 | 77 | 97.2

Row | Substance | Survival [1] [%] | Survival [2] [%] | Survival [3] [%]
45 | MMV019234 | 92.9 | 78.1 | 125
46 | MMV019551 | 90.1 | 77.8 | 103
47 | MMV019721 | 114 | 104 | 121
48 | MMV019742 | 97.5 | 96 | 103
49 | MMV019790 | 102 | 90.2 | 107
50 | MMV019807 | 118 | 97.4 | 116
51 | MMV019838 | 81.2 | 84.2 | 124
52 | MMV019993 | 98.9 | 97 | 95.9
53 | MMV020081 | 87.7 | 89.4 | 118
54 | MMV020120 | 104 | 94.3 | 122
55 | MMV020136 | 88.5 | 88.7 | 129
56 | MMV020152 | 91.2 | 78.2 | 118
57 | MMV020165 | 98.7 | 82.1 | 106
58 | MMV020289 | 103 | 86.3 | 113
59 | MMV020291 | 103 | 90.7 | 121
60 | MMV020320 | 98.9 | 42.2 | 113
61 | MMV020321 | 91.7 | 90.7 | 115
62 | MMV020388 | 102 | 88.5 | 113
63 | MMV020391 | 91.8 | 95.4 | 108
64 | MMV020512 | 109 | 104 | 116
65 | MMV020517 | 94 | 79.9 | 123
66 | MMV020520 | 113 | 104 | 125

Row | Substance | Survival [1] [%] | Survival [2] [%] | Survival [3] [%]
67 | MMV020537 | 62.7 | 94.1 | 105
68 | MMV020591 | 112 | 106 | 113
69 | MMV020623 | 111 | 107 | 118
70 | MMV020670 | 93 | 99.7 | 110
71 | MMV020710 | 95.7 | 86.9 | 123
72 | MMV020982 | 103 | 84.3 | 124
73 | MMV021013 | 88 | 100 | 108
74 | MMV021057 | 110 | 96.6 | 126
75 | MMV021375 | 93.8 | 89.6 | 111
76 | MMV021660 | 107 | 67.5 | 102
77 | MMV022029 | 99.1 | 90.8 | 118
78 | MMV022236 | 109 | 109 | 119
79 | MMV022478 | 3.7 | 3.81 | 13.3
80 | MMV023183 | 104 | 88.3 | 119
81 | MMV023227 | 87.2 | 85.3 | 106
82 | MMV023233 | 90.8 | 89.1 | 106
83 | MMV023370 | 107 | 102 | 109
84 | MMV023388 | 98 | 99.3 | 90.4
85 | MMV023860 | 90.3 | 84.6 | 117
86 | MMV023949 | 90.5 | 92.7 | 116
87 | MMV023953 | 93.7 | 100 | 104
88 | MMV023969 | 92.8 | 19.5 | 96

Row | Substance | Survival [1] [%] | Survival [2] [%] | Survival [3] [%]
89 | MMV023985 | 109 | 85.1 | 101
90 | MMV024035 | 98.3 | 85.9 | 117
91 | MMV024101 | 100 | 99.6 | 95.8
92 | MMV024114 | 106 | 126 | 121
93 | MMV024195 | 94.1 | 74.2 | 103
94 | MMV024311 | 106 | 74.4 | 96.6
95 | MMV024397 | 98.2 | 88.8 | 118
96 | MMV024406 | 100 | 89 | 114
97 | MMV024443 | 101 | 102 | 94.5
98 | MMV024829 | 103 | 88.9 | 119
99 | MMV024937 | 111 | 88.4 | 103
100 | MMV026020 | 105 | 102 | 113
101 | MMV026313 | 86.2 | 82.9 | 100
102 | MMV026356 | 89.7 | 101 | 107
103 | MMV026468 | 96.1 | 95.9 | 105
104 | MMV026490 | 104 | 88.9 | 115
105 | MMV026550 | 98.7 | 88.2 | 111
106 | MMV028694 | 91.4 | 88.7 | 113
107 | MMV030734 | 89.4 | 82.6 | 111
108 | MMV031011 | 89.4 | 99.4 | 109
109 | MMV032967 | 87.8 | 92.6 | 104
